Laboratory results taken from BindingDB's records for doi:10.1016/j.bmcl.2019.04.027 (Gilead Sciences, 2019).

Experiments:
[1] = Inhibition of NS5A in HCV genotype 1a H77 infected in human HuH7 replicon cells assessed as reduction in viral replication after 3 days by luciferase reporter gene assay
[2] = Inhibition of NS5A in HCV genotype 2a JFH1 infected in human HuH7 replicon cells assessed as reduction in viral replication after 3 days by luciferase reporter gene assay
[3] = Inhibition of NS5A Q30R mutant in HCV genotype 1a infected in human HuH7 replicon cells assessed as reduction in viral replication after 3 days by luciferase reporter gene assay
[4] = Inhibition of NS5A in HCV wild type genotype 2a infected in human HuH7 replicon cells assessed as reduction in viral replication after 3 days by luciferase reporter gene assay
[5] = Inhibition of NS5A L31M mutant in HCV genotype 1a infected in human HuH7 replicon cells assessed as reduction in viral replication after 3 days by luciferase reporter gene assay
[6] = Inhibition of NS5A in wild type HCV genotype 3a infected in human HuH7 replicon cells assessed as reduction in viral replication after 3 days by luciferase reporter gene assay
[7] = Inhibition of NS5A N62V mutant in HCV genotype 2a infected in human HuH7 replicon cells assessed as reduction in viral replication after 3 days by luciferase reporter gene assay
[8] = Inhibition of NS5A R44K mutant in HCV genotype 2b infected in human HuH7 replicon cells assessed as reduction in viral replication after 3 days by luciferase reporter gene assay
[9] = Inhibition of NS5A Y93H mutant in HCV genotype 1b infected in human HuH7 replicon cells assessed as reduction in viral replication after 3 days by luciferase reporter gene assay
[10] = Inhibition of NS5A in wild type HCV genotype 2b MD2b-1 infected in human HuH7 replicon cells assessed as reduction in viral replication after 3 days by luciferase reporter gene assay
[11] = Inhibition of NS5A in HCV genotype 6a HK6 infected in human HuH7 replicon cells assessed as reduction in viral replication after 3 days by luciferase reporter gene assay
[12] = Inhibition of NS5A in HCV genotype 4a ED43 infected in human HuH7 replicon cells assessed as reduction in viral replication after 3 days by luciferase reporter gene assay
[13] = Inhibition of NS5A in HCV genotype 6e D88 infected in human HuH7 replicon cells assessed as reduction in viral replication after 3 days by luciferase reporter gene assay
[14] = Inhibition of NS5A Y93H mutant in HCV genotype 1a infected in human HuH7 replicon cells assessed as reduction in viral replication after 3 days by luciferase reporter gene assay
[15] = Inhibition of NS5A Q30H mutant in HCV genotype 1a infected in human HuH7 replicon cells assessed as reduction in viral replication after 3 days by luciferase reporter gene assay
[16] = Inhibition of NS5A Y93H mutant in HCV genotype 3a infected in human HuH7 replicon cells assessed as reduction in viral replication after 3 days by luciferase reporter gene assay
[17] = Inhibition of NS5A M28T mutant in HCV genotype 1a infected in human HuH7 replicon cells assessed as reduction in viral replication after 3 days by luciferase reporter gene assay
[18] = Inhibition of NS5A L31M mutant in HCV genotype 2a J6 (M31) infected in human HuH7 replicon cells assessed as reduction in viral replication after 3 days by luciferase reporter gene assay
[19] = Inhibition of NS5A A30K mutant in HCV genotype 3a infected in human HuH7 replicon cells assessed as reduction in viral replication after 3 days by luciferase reporter gene assay
[20] = Inhibition of NS5A in HCV genotype 2a J6 infected in human HuH7 replicon cells assessed as reduction in viral replication after 3 days by luciferase reporter gene assay
[21] = Inhibition of NS5A in HCV genotype 5a SA13 infected in human HuH7 replicon cells assessed as reduction in viral replication after 3 days by luciferase reporter gene assay
[22] = Inhibition of NS5A in wild type HCV genotype 1b infected in human HuH7 replicon cells assessed as reduction in viral replication after 3 days by luciferase reporter gene assay
[23] = Inhibition of NS5A in HCV genotype 2b MD2b-1 infected in human HuH7 replicon cells assessed as reduction in viral replication after 3 days by luciferase reporter gene assay
[24] = Inhibition of NS5A K44R mutant in HCV genotype 2a infected in human HuH7 replicon cells assessed as reduction in viral replication after 3 days by luciferase reporter gene assay
[25] = Inhibition of NS5A in HCV genotype 3a S52 infected in human HuH7 replicon cells assessed as reduction in viral replication after 3 days by luciferase reporter gene assay
[26] = Inhibition of NS5A in HCV genotype 1b Con1 infected in human HuH7 replicon cells assessed as reduction in viral replication after 3 days by luciferase reporter gene assay
[27] = Inhibition of NS5A N62S mutant in HCV genotype 2a infected in human HuH7 replicon cells assessed as reduction in viral replication after 3 days by luciferase reporter gene assay
[28] = Inhibition of NS5A Y93C mutant in HCV genotype 1a infected in human HuH7 replicon cells assessed as reduction in viral replication after 3 days by luciferase reporter gene assay
[29] = Inhibition of NS5A in wild type HCV genotype 2b AY232738 infected in human HuH7 replicon cells assessed as reduction in viral replication after 3 days by luciferase reporter gene assay
[30] = Inhibition of NS5A Q30E mutant in HCV genotype 1a infected in human HuH7 replicon cells assessed as reduction in viral replication after 3 days by luciferase reporter gene assay
[31] = Inhibition of NS5A P58S mutant in HCV genotype 2b infected in human HuH7 replicon cells assessed as reduction in viral replication after 3 days by luciferase reporter gene assay
[32] = Inhibition of NS5A in wild type HCV genotype 1a infected in human HuH7 replicon cells assessed as reduction in viral replication after 3 days by luciferase reporter gene assay

| SMILES | EC50 [1] | EC50 [2] | EC50 [3] | EC50 [4] | EC50 [5] | EC50 [6] | EC50 [7] | EC50 [8] | EC50 [9] | EC50 [10] | EC50 [11] | EC50 [12] | EC50 [13] | EC50 [14] | EC50 [15] | EC50 [16] | EC50 [17] | EC50 [19] | EC50 [20] | EC50 [21] | also measured |
| --- | --- | --- | --- | --- | --- | --- | --- | --- | --- | --- | --- | --- | --- | --- | --- | --- | --- | --- | --- | --- | --- |
| COC[C@H]1C[C@@H](c2nc(-c3ccc4c(c3)COc3cc5c(ccc6nc([C@@H]7CC[C@H](C)N7C(=O)[C@@H](NC(=O)OC)C(C)C)[nH]c65)cc3-4)c[nH]2)N(C(=O)[C@H](NC(=O)OC)c2ccccc2)C1 [GS-5816] | 0.014 nM | 0.008 nM | 0.031 nM | 0.009 nM | 0.22 nM | 0.013 nM | 0.01 nM | 0.011 nM | 0.011 nM | 0.004 nM | 0.006 nM | 0.009 nM | 0.13 nM | 8.5 nM | 0.032 nM | 3.2 nM | 0.105 nM | 0.21 nM | 0.016 nM | 0.054 nM | EC50 [18]: 0.016 nM; EC50 [22]: 0.016 nM; EC50 [23]: 0.006 nM; EC50 [24]: 0.005 nM; EC50 [25]: 0.004 nM; EC50 [26]: 0.016 nM; EC50 [27]: 0.003 nM; EC50 [28]: 0.053 nM; EC50 [29]: 0.007 nM; EC50 [30]: 0.25 nM; EC50 [31]: 0.01 nM; EC50 [32]: 0.014 nM |
| COC(=O)N[C@H](C(=O)N1CC2(CC2)C[C@H]1c1nc(-c2ccc3c(c2)C(F)(F)c2cc(-c4ccc5[nH]c([C@@H]6[C@H]7CC[C@H](C7)N6C(=O)[C@@H](NC(=O)OC)C(C)C)nc5c4)ccc2-3)c[nH]1)C(C)C [CHEBI:85089] | 0.031 nM | 21 nM | 20 nM | 209 nM | 17 nM | > 45 nM | 222 nM | 943 nM | 7.2 nM | 865 nM | 1.1 nM | 0.39 nM | 264 nM | 52 nM | 5.7 nM | > 89 nM | 1.9 nM | > 89 nM | 249 nM | 0.15 nM | EC50 [22]: 0.004 nM; EC50 [23]: 530 nM; EC50 [24]: 164 nM; EC50 [25]: 168 nM; EC50 [26]: 0.004 nM; EC50 [27]: 123 nM; EC50 [28]: 50 nM; EC50 [29]: 211 nM; EC50 [30]: 169 nM; EC50 [31]: 292 nM; EC50 [32]: 0.031 nM |
